Experimental data published in article PMC4741798, “Imaging of carbonic anhydrase IX with an ^111In-labeled dual-motif inhibitor” (Oncotarget, 2015).
“And” between values parts separate entries of the source, which are not always exact repeats. Identical values can stand only once. “Also recorded” adds a separate entry of the source.

Legend:
[1] = tested on: SK-RC-52 xenografts; assay: Biodistribution in mice bearing SK-RC-52 xenografts; assay type: in vivo; conditions: for Tumor/mm (muscle) ratio / Biodistribution: Tumor / Biodistribution: Bladder / Biodistribution: Blood / Biodistribution: Brain / Biodistribution: Fat / Biodistribution: Heart / Biodistribution: Kidney (kid) / Biodistribution: Liver / Biodistribution: Lung / Biodistribution: Muscle (mm) / Biodistribution: Pancreas / Biodistribution: Sm. intestine / Biodistribution: Spleen / Biodistribution: Stomach / Tumor/blood ratio / Tumor/kid (kidney) ratio: n = 5; for Biodistribution: Tumor: SK-RC-52 tumor
Procedure: Mice bearing SK-RC-52 xenografts within the lower left flank were injected intravenously with 740 kBq (20 μCi) of [^111In]XYIMSR-01 in 200 μL of PBS. For in vivo competition (binding specificity) studies, tumor-bearing mice were injected with 740 kBq (20 μCi) of [^111In]XYIMSR-01 and 200 nmole of 1 in 200 μL of PBS concurrently. At 1 h, 4 h, 8 h, 24 h and 48 h post-injection, mice were sacrificed by cervical dislocation and the blood was immediately collected by cardiac puncture. Heart, lungs, pancreas, spleen, fat, brain, muscle, small intestines, liver, stomach, kidney, urinary bladder, and tumor were collected. Each organ was weighed and the tissue radioactivity was measured with an automated gamma counter (1282 Compugamma CS, Pharmacia/LKBNuclear, Inc., Mt. Waverly, Vic. Australia). The percentage of injected dose per gram of tissue (% ID/g) was calculated by comparison with samples of a standard dilution of the initial dose. All measurements were corrected for radioactive decay.
Data were expressed as mean ± standard deviation (SD). Prism software (GraphPAD, San Diego, California) was used to determine statistical significance. Statistical significance was calculated using a paired t test. P-values < 0.0001 were considered significant.

[2] = tested on: CAIX-expressing SK-RC-52 tumors; assay: SPECT/CT imaging of mice with SK-RC-52 tumors; assay type: in vivo; conditions: 14.8 MBq via tail vein
Procedure: Mice harboring subcutaneous SK-RC-52 tumors with the lower left flank were injected with 14.8 MBq (400 μCi) of [^111In]XYIMSR-01 in 250 μL of PBS (pH = 7.0) intravenously (tail vein). Anesthesia was then induced with 3% isofluorane and maintained at 2% isoflurane. Physiologic temperature was maintained with an external light source while the mouse was on the gantry. Imaging employed a CT-equipped Gamma Medica-Ideas SPECT scanner (Northridge, CA). SPECT data were acquired in 64 projections at 65 s per projection using medium energy pinhole collimators. A CT scan was performed in 512 projections at the end of each SPECT scan for anatomic co-registration. CT and SPECT scans were performed at 1, 4, 8, 24, and 48 h post-injection of [^111In]XYIMSR-01. Imaging data sets were reconstructed using the manufacturer's software. Display of images utilized Amide software (Dice Holdings, Inc. NY).

[3] = 48 h + Block (co-injected 200 nmole of 1)
[4] = plateau followed by one phase decay fit of Table 1 data

## CC(CCC(=O)N[C@@H](CC(=O)N[C@@H](CC(=O)N[C@@H](CCCCn1cc(CCCC(=O)Nc2nnc(S(N)(=O)=O)s2)nn1)C(=O)NCCOCCOCCNC(=O)CN1CCN(CC(=O)[O-])CCN(CC(=O)[O-])CCN(CC(=O)[O-])CC1)C(=O)O)C(=O)O)(c1ccc(O)cc1)c1ccc(O)cc1.[111In+3] [[^111In]XYIMSR-01]
[1]; 24 h + Block (co-injected 200 nmole of 1)
  Tumor/mm (muscle) ratio: 91.4 ± 11.1
[1]; 24 h post-injection
  tumor/liver ratio: 8.5
  Tumor/blood ratio: 178 and 178.1 ± 145.4
  Tumor/kid (kidney) ratio: 1.7 and 1.7 ± 1.2
  Tumor/mm (muscle) ratio: 68 and 68.4 ± 29.0
[1]; 24 h post-injection, i.v.
  Biodistribution: Tumor: 25.62 ± 17.67 %ID/g
  Biodistribution: Bladder: 0.74 ± 0.17 %ID/g
  Biodistribution: Blood: 0.15 ± 0.02 %ID/g
  Biodistribution: Brain: 0.71 ± 0.85 %ID/g
  Biodistribution: Fat: 0.28 ± 0.19 %ID/g
  Biodistribution: Heart: 1.16 ± 0.20 %ID/g
  Biodistribution: Kidney (kid): 15.29 ± 1.69 %ID/g
  Biodistribution: Liver: 3.02 ± 3.46 %ID/g
  Biodistribution: Lung: 11.01 ± 3.71 %ID/g
  Biodistribution: Muscle (mm): 0.35 ± 0.12 %ID/g
  Biodistribution: Pancreas: 0.69 ± 0.18 %ID/g
  Biodistribution: Sm. intestine: 2.11 ± 0.33 %ID/g
  Biodistribution: Spleen: 0.69 ± 0.39 %ID/g
  Biodistribution: Stomach: 3.31 ± 1.25 %ID/g
[1]; [3]
  Biodistribution: Tumor: 1 %ID/g and 1.22 ± 0.54 %ID/g
  Biodistribution: Bladder: 0.14 ± 0.03 %ID/g
  Biodistribution: Blood: 0.03 ± 0.00 %ID/g
  Biodistribution: Fat: 0.03 ± 0.01 %ID/g
  Biodistribution: Heart: 0.04 ± 0.01 %ID/g
  Biodistribution: Kidney (kid): 0.45 ± 0.09 %ID/g
  Biodistribution: Liver: 0.13 ± 0.04 %ID/g
  Biodistribution: Lung: 0.09 ± 0.02 %ID/g
  Biodistribution: Muscle (mm): 0.02 ± 0.00 %ID/g
  Biodistribution: Pancreas: 0.03 ± 0.01 %ID/g
  Biodistribution: Sm. intestine: 0.08 ± 0.02 %ID/g
  Biodistribution: Spleen: 0.11 ± 0.03 %ID/g
  Biodistribution: Stomach: 0.14 ± 0.03 %ID/g
  Tumor/blood ratio: 45.4 ± 13.8
  Tumor/kid (kidney) ratio: 2.7 ± 0.8
  Tumor/mm (muscle) ratio: 75.1 ± 17.7
[1]; 48 h post-injection, i.v.
  Biodistribution: Tumor: 13.92 ± 6.67 %ID/g
  Biodistribution: Bladder: 0.38 ± 0.18 %ID/g
  Biodistribution: Blood: 0.06 ± 0.02 %ID/g
  Biodistribution: Brain: 0.41 ± 0.05 %ID/g
  Biodistribution: Fat: 0.25 ± 0.08 %ID/g
  Biodistribution: Heart: 0.84 ± 0.16 %ID/g
  Biodistribution: Kidney (kid): 8.78 ± 1.89 %ID/g
  Biodistribution: Liver: 1.65 ± 0.26 %ID/g
  Biodistribution: Lung: 9.22 ± 1.25 %ID/g
  Biodistribution: Muscle (mm): 0.39 ± 0.28 %ID/g
  Biodistribution: Pancreas: 0.59 ± 0.18 %ID/g
  Biodistribution: Sm. intestine: 1.22 ± 0.44 %ID/g
  Biodistribution: Spleen: 0.67 ± 0.13 %ID/g
  Biodistribution: Stomach: 1.82 ± 0.43 %ID/g
[1]; 48 h post-injection
  Tumor/blood ratio: 212.0 ± 41.4
  Tumor/kid (kidney) ratio: 1.5 ± 0.5
  Tumor/mm (muscle) ratio: 52.0 ± 21.0
[1]; [4]
  Calculated biological excretion half-life: Bladder: 3.730 hr
  Calculated biological excretion half-life: Blood: 3.246 hr
  Calculated biological excretion half-life: Brain: 3.926 hr
  Calculated biological excretion half-life: Fat: 1.536 hr
  Calculated biological excretion half-life: Heart: 3.538 hr
  Calculated biological excretion half-life: Kidney: 4.344 hr
  Calculated biological excretion half-life: Liver: 4.243 hr
  Calculated biological excretion half-life: Lung: 5.602 hr
  Calculated biological excretion half-life: Muscle: 2.534 hr
  Calculated biological excretion half-life: Pancreas: 3.179 hr
  Calculated biological excretion half-life: SK-RC-52 tumor: 12.27 hr
  Calculated biological excretion half-life: Small intestine: 5.597 hr
  Calculated biological excretion half-life: Stomach: 3.908 hr
[2]; 24-48 h post-injection
  retention of radioactivity seen by SPECT/CT at late time points (in words): nearly all of the radioactivity in the kidneys and other organs had been eliminated, with tumor still retaining significant amounts of radiotracer; also recorded: Retention of radioactivity was exclusively observed in tumors by 48 h
[2]; two mice
  tumor uptake seen by SPECT/CT (in words): radiotracer uptake was observed within the tumors at 1 h post-injection; also recorded: radiotracer uptake in tumor as early as 1 h post-injection
